Data set [1] is described as follows: Apparent permeability in pig LLC-PK1 cells.
The target in data set [2] is T1, ATP-sensitive inward rectifier potassium channel 1 (Rattus norvegicus, UniProt P35560).
T1 sequence (P35560 whole entry): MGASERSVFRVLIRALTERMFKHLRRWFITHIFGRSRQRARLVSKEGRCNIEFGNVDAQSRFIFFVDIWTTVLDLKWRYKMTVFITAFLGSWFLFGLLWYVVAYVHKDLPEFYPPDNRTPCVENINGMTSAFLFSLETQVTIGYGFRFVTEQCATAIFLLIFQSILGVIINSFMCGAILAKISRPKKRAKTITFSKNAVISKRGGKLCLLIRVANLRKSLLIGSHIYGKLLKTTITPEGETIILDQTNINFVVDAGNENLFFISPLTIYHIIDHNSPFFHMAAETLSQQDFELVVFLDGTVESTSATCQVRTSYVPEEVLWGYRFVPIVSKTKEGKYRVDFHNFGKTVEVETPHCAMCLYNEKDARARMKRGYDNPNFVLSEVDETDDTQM
Description: Inhibition of rat Kir1.1 expressed in HEK293 cells by electrophysiology assay. The data set is classed as cell-based.

The nature of data set [3]: Clearance in Beagle dog at 2 mg/kg, po or 1 mg/kg, iv. The data set is classed as ADME, organism-based, Canis lupus familiaris. The note with it: in vivo.
Data set [4] in a line: Cmax in Beagle dog at 2 mg/kg, po or 1 mg/kg, iv. The data set is classed as ADME, organism-based, Canis lupus familiaris. Details: dose 2 mg/kg. The note with it: in vivo.
Data set [5] can be described thus: Tmax in Beagle dog at 2 mg/kg, po or 1 mg/kg, iv. The data set is classed as ADME, organism-based, Canis lupus familiaris. The conditions noted are these: in vivo.
Data set [6] can be described thus: Clearance in rhesus monkey at 2 mg/kg, po or 1 mg/kg, iv. The conditions noted are these: in vivo. The data set is classed as ADME, organism-based, Macaca mulatta.
Data set [7] can be described thus: Terminal half life in rhesus monkey at 2 mg/kg, po or 1 mg/kg, iv. The note with it: in vivo, read-out: beta t1/2 (converted). The data set is classed as ADME, organism-based, Macaca mulatta.
Data set [8] can be described thus: Metabolic stability in Wistar Han rat liver microsomes by LC/MS analysis. The data set is classed as ADME, Microsome. In general terms: Liver microsomes are a subcellular fraction often used to study metabolism.
Data set [9] in a line: Metabolic stability in rhesus monkey liver microsomes by LC/MS analysis. The data set is classed as ADME, Macaca mulatta, Microsome.
For data set [10], the system named is Rattus norvegicus. Description: Diuretic activity in orally dosed spontaneous hypertensive rat assessed as urine volume treated for 3 days measured after 0 to 24 hrs of dosing. The note with it: time 3.0 day. The data set is classed as functional, organism-based.
The subject of data set [11] is Rattus norvegicus. Description: Diuretic activity in orally dosed spontaneous hypertensive rat assessed as increase in sodium excretion treated for 3 days measured after 0 to 4 hrs of dosing. The data set is classed as functional, organism-based. The note with it: time 3.0 day.
The test system of data set [12] is Rattus norvegicus. As to the kind of experiment: Diuretic activity in orally dosed spontaneous hypertensive rat assessed as increase in sodium excretion treated for 3 days measured after 0 to 24 hrs of dosing. The data set is classed as functional, organism-based. The conditions noted are these: time 3.0 day.
Data set [13] can be described thus: Drug metabolism in rhesus monkey hepatocytes assessed as N-acetylglucosamine conjugate metabolite formation by LC/MS analysis. The data set is classed as ADME, cell-based, Macaca mulatta, Hepatocyte.
The nature of data set [14]: Drug metabolism in Beagle dog hepatocytes assessed as metabolite formation by LC/MS analysis. The data set is classed as ADME, cell-based, Canis lupus familiaris, Hepatocyte.
Data set [15] in a line: Drug metabolism in Wistar Han rat hepatocytes assessed as metabolite formation by LC/MS analysis. The data set is classed as ADME, cell-based, Hepatocyte.
In data set [16] the target is T2, Inward rectifier potassium channel 13 (Homo sapiens, UniProt O60928).
T2 sequence (O60928 whole entry): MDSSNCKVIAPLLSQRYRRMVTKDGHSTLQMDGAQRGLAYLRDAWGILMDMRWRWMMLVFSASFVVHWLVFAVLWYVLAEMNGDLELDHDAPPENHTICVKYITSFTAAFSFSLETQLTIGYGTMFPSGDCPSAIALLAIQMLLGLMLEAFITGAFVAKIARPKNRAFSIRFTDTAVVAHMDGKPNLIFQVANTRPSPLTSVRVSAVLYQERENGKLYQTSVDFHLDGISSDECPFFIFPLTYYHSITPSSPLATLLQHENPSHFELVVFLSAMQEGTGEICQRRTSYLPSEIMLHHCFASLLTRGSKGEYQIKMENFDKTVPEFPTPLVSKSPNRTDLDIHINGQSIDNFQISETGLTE
Description: Inhibition of Kir7.1 (unknown origin).

Data set [17] deals with Cytochrome P450 2D6 (Homo sapiens, UniProt P10635). Description: Inhibition of CYP2D6 (unknown origin).
Data set [18] concerns the target Cytochrome P450 2C9 (Homo sapiens, UniProt P11712). As to the kind of experiment: Inhibition of CYP2C9 (unknown origin).
Data set [19] in a line: Toxicity in rat assessed as tolerance at 5 to 300 mg/kg treated for 7 days. The data set is classed as organism-based. The conditions noted are these: in vivo, 168 h, dose 5-300 mg/kg, time 7 day.
Data set [20] can be described thus: Toxicity in rat assessed as change in body weight at 5 to 300 mg/kg treated for 7 days. The data set is classed as organism-based. The conditions noted are these: in vivo, 168 h, dose 5-300 mg/kg, time 7 day.
The nature of data set [21]: Toxicity in rat assessed as histological changes at 5 to 300 mg/kg treated for 7 days. The data set is classed as organism-based. The note with it: in vivo, 168 h, dose 5-300 mg/kg, time 7 day.
Data set [22] in a line: Drug excretion in bile-duct cannulated rat assessed as urinary excretion. The data set is classed as ADME. The conditions noted are these: urine, read-out: Drug excretion.

Structures are written as SMILES.

Chain of Cytochrome P450 2C9 (P11712 whole entry): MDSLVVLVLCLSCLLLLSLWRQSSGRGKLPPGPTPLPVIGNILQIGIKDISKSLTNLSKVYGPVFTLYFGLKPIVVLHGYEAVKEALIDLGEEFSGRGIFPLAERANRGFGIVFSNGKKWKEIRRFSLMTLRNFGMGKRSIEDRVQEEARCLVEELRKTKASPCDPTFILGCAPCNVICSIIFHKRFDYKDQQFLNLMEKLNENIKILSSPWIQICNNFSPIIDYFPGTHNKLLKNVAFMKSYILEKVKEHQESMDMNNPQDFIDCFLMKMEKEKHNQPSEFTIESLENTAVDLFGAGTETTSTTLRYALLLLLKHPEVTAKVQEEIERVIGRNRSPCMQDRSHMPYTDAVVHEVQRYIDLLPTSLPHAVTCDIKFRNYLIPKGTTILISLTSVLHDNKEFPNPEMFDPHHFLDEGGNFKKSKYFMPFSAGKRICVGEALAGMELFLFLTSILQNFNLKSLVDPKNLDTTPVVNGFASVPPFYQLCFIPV
Chain of Cytochrome P450 2D6 (P10635 whole entry): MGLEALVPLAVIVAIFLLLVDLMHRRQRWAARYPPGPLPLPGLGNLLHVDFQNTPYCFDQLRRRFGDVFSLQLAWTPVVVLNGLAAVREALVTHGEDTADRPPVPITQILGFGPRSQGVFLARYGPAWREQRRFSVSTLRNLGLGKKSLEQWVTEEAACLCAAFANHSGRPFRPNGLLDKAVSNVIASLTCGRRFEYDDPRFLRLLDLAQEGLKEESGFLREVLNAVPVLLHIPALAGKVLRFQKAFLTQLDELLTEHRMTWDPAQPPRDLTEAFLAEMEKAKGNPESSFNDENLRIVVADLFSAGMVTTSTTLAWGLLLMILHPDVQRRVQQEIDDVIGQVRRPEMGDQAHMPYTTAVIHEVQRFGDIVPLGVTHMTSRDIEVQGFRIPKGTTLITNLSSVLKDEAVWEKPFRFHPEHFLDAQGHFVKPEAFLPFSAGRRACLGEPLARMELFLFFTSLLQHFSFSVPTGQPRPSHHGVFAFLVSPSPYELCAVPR

One may read the Papp as the rate of passage across a membrane or cell layer, normalised by area and donor concentration. By IC50 is commonly meant the concentration that inhibits the measured activity by half. Usually Cmax stands for the maximum level reached in the sampled fluid or tissue. One may read the Tmax as the time at which the peak concentration occurs. `CC1=C(N2CCC3(CCN(C[C@H](O)c4ccc5c(c4C)COC5=O)CC3)C2=O)COC1=O`: in [1], the Papp worked out at 21 ×10⁻⁶ cm/s. For the same compound, the IC50 in data set [2] was 2.8 nM; in data set [16], over 100 µM; in data set [17] it was over 50 µM; in data set [18] it was over 50 µM. In addition, the clearance in [3] was 8.7 mL/min/kg; in [6] it was 58.3 mL/min/kg. The compound also registered a Cmax in [4] of 2400 nM. Besides, the Tmax in data set [5] was determined as 48 min. In addition, the half-life in [7] was 198 min. Also, the Stability result in data set [8] and in data set [9] was “Stable” throughout. Besides, the Activity result is “Dose-Dependent Effect” in [10]; “Dose-Dependent Effect” in data set [11]; “Dose-Dependent Effect” in data set [12]; “Non-Toxic” in data set [19]; “Non-Toxic” in [20]; “Non-Toxic” in data set [21]. The figures for the Drug metabolism entry in data set [13], in data set [14] and in [15] were “Metabolite_Detected”, “Metabolite_Notdetected” and “Metabolite_Notdetected”, respectively. For the same compound, the dose excreted in data set [22] was 66%.

The values are drawn from ChEMBL document CHEMBL5038592, “Discovery of MK-8153, a Potent and Selective ROMK Inhibitor and Novel Diuretic/Natriuretic” (J Med Chem, 2021).
